Reference: US20190330226A1, “POSITIVE ALLOSTERIC MODULATORS OF THE MUSCARINIC ACETYLCHOLINE RECEPTOR M1” (Vanderbilt University, priority 2018, published 2019)

Molecular target: T1, human mAChR M1 (Homo sapiens, UniProt P11229)
T1 construct: host or cells: CHO-K1 (ATCC), stably transfected using Lipofectamine 2000
T1 sequence (P11229 1-460): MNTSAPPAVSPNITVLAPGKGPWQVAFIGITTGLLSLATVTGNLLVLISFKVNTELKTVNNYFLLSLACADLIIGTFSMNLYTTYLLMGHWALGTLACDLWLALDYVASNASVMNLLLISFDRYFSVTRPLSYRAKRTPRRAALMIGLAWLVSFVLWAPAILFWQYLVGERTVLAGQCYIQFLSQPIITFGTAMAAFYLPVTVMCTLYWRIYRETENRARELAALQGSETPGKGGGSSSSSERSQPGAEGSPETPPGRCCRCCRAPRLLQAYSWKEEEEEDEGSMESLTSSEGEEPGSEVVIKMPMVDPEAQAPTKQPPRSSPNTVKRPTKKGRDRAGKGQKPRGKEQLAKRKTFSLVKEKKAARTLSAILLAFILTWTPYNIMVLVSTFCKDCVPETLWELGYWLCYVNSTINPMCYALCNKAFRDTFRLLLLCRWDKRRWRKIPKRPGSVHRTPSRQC
Assay: mAChR M1 cell-based functional assay (calcium mobilization, Fluo-4, FDSS)
Conditions: CHO-K1 cells stably expressing hM1, calcium flux; for Emax: PAM mode with EC20 acetylcholine; for EC50: concentration-dependent increase in the EC20 acetylcholine response
Text: Chinese hamster ovary (CHO-K1) cells stably expressing rat (r)M1 were purchased from the American Type Culture Collection and cultured according to their indicated protocol. CHO cells stably expressing human (h)M2, hM3, and hM5 were described previously (Levey, et al., 1991); hM1 and hM4 cDNAs were purchased from Missouri S&T cDNA Resource; rM4 cDNA was provided by T. I. Bonner (National Institutes of Health, Bethesda, Md.). rM2 and rM3 were cloned from a rat brain cDNA library and sequence verified. hM1, rM2, rM3, hM4, and rM4 cDNAs were used to stably transfect CHO-K1 cells purchased from the American Type Culture Collection using Lipofectamine 2000. To make stable rM2, hM2, rM3, hM4, and rM4 cell lines for use in calcium mobilization assays, these cells also were stably transfected with a chimeric G-protein (Gqi5) (provided by B. R. Conklin, University of California, San Francisco) using Lipofectamine 2000. rM1, hM1, rM3, hM3, rM5, and hM5 cells were grown in Ham's F-12 medium containing 10% heat-inactivated fetal bovine serum (FBS), 20 mM HEPES, and 50 µg/mL G418 sulfate. rM2-Gqi5, hM2-Gqi5, and hM4-Gqi5 cells were grown in the same medium also containing 500 μg/mL Hygromycin B. Stable rM4-Gqi5 cells were grown in DMEM containing 10% heat-inactivated FBS, 20 mM HEPES, 400 μg/mL G418 sulfate, and 500 μg/mL Hygromycin B.
For high throughput measurement of agonist-evoked increases in intracellular calcium, CHO-K1 cells stably expressing muscarinic receptors were plated in growth medium lacking G418 and hygromycin at 15,000 cells/20 μL/well in Greiner 384-well black-walled, tissue culture (TC)-treated, clear-bottom plates (VWR). Cells were incubated overnight at 37° C. and 5% CO2. The next day, cells were washed using an ELX 405 (BioTek) with four washes ([…]) of assay buffer then aspirated to 20 μL. Next, 20 μL of 16 μM Fluo-4/acetoxymethyl ester (Invitrogen, Carlsbad, Calif.) prepared as a 2.3 mM stock in DMSO and mixed in a 1:1 ratio with 10% (w/v) Pluronic F-127 and diluted in assay buffer was added to the wells and the cell plates were incubated for 50 min at 37° C. and 5% CO2. Dye was removed by washing with the ELX 405 (four 80 μL washes of assay buffer) then aspirated to 20 μL. Compound master plates were formatted in an 11 point CRC format (1:3 dilutions) in 100% DMSO with a starting concentration of 10 mM using the BRAVO liquid handler (Agilent). Test compound CRCs were then transferred to daughter plates (240 nL) using the Echo acoustic plate reformatter (Labcyte, Sunnyvale, Calif.) and then diluted into assay buffer (40 μL) to a 2× stock using a Thermo Fisher Combi (Thermo Fisher Scientific, Waltham, Mass.).
Calcium flux was measured using the Functional Drug Screening System (FDSS) 6000 (Hamamatsu Corporation, Tokyo, Japan) as an increase in the fluorescent static ratio. Compounds were applied to cells (20 μL, 2×) using the automated system of the FDSS 6000 at 4 s into the 300 s protocol and the data were collected at 1 Hz. At 144 s into the 300s protocol, 10 μL of an EC20 concentration of the muscarinic receptor agonist acetylcholine was added (5×), followed by the addition of 12 μL an EC80 concentration of acetylcholine at the 230 s time point (5×). Agonist activity was analyzed as a concentration-dependent increase in calcium mobilization upon compound addition. Positive allosteric modulator activity was analyzed as a concentration-dependent increase in the EC20 acetylcholine response. Antagonist activity was analyzed as a concentration-dependent decrease in the EC80 acetylcholine response. Concentration-response curves were generated using a four-parameter logistical equation in XLfit curve fitting software (IDBS, Bridgewater, N.J.) for Excel (Microsoft, Redmond, Wash.) or Prism (GraphPad Software, Inc., San Diego, Calif.).
Activity (EC50 and Emax) was determined in the mAChR M1 cell-based functional assay as described above and the data are shown in Table 2. […]

Row | Compound | Emax [%] | EC50 [nM]
1 | Cn1cc2c(-c3cc(F)c(CN4Cc5ccn(C)c5C4=O)c(F)c3)cccc2n1 [Compound 4, 5-(2,6-difluoro-4-(2-methyl-2H-indazol-4-yl)benzyl)-1-methyl-4,5-dihydropyrrolo[3,4-b]pyrrol-6(1H)-one] | 36 | 1880
2 | Cn1cc2c(-c3cc(F)c(CN4Cc5cnn(Cc6ccccn6)c5C4=O)c(F)c3)cccc2n1 [Compound 6, 5-(2,6-Difluoro-4-(2-methyl-2H-indazol-4-yl)benzyl)-1-(pyridin-2-ylmethyl)-4,5-dihydropyrrolo[3,4-c]pyrazol-6(1H)-one] | 63 | –
3 | COc1ccc(Cn2ncc3c2C(=O)N(Cc2c(F)cc(-c4cccc5nn(C)cc45)cc2F)C3)cc1 [Compound 6.1, 5-(2,6-difluoro-4-(2-methyl-2H-indazol-4-yl)benzyl)-1-(4-methoxybenzyl)-4,5-dihydropyrrolo[3,4-c]pyrazol-6(1H)-one] | 45 | 4370
4 | Cn1cc2c(-c3cc(F)c(CN4Cc5cn[nH]c5C4=O)c(F)c3)cccc2n1 [Compound 6.2, 5-(2,6-difluoro-4-(2-methyl-2H-indazol-4-yl)benzyl)-4,5-dihydropyrrolo[3,4-c]pyrazol-6(1H)-one] | 87 | –
5 | Cn1cc2c(-c3cc(F)c(CN4Cc5cn(Cc6ccccn6)nc5C4=O)c(F)c3)cccc2n1 [Compound 7, 5-(2,6-difluoro-4-(2-methyl-2H-indazol-4-yl)benzyl)-2-(pyridin-2-ylmethyl)-4,5-dihydropyrrolo[3,4-c]pyrazol-6(2H)-one] | 46 | –
6 | Cn1cc2c(-c3cc(F)c(CN4Cc5cc[nH]c5C4=O)c(F)c3)cccc2n1 [Compound 9, 5-(2,6-difluoro-4-(2-methyl-2H-indazol-4-yl)benzyl)-4,5-dihydropyrrolo[3,4-b]pyrrol-6(1H)-one] | 36 | 1880
7 | CCCn1ccc2c1C(=O)N(Cc1c(F)cc(-c3cccc4nn(C)cc34)cc1F)C2 [Compound 10, 5-(2,6-difluoro-4-(2-methyl-2H-indazol-4-yl)benzyl)-1-propyl-4,5-dihydropyrrolo[3,4-b]pyrrol-6(1H)-one] | 59 | –
8 | Cn1cc2c(-c3cc(F)c(CN4Cc5ccn(CCN6CCCC6)c5C4=O)c(F)c3)cccc2n1 [Compound 11, 5-(2,6-difluoro-4-(2-methyl-2H-indazol-4-yl)benzyl)-1-(2-(pyrrolidin-1-yl)ethyl)-4,5-dihydropyrrolo[3,4-b]pyrrol-6(1H)-one] | 57 | 2920
9 | Cn1cc2c(-c3cc(F)c(CN4Cc5cnn(CC6CCCO6)c5C4=O)c(F)c3)cccc2n1 (stereo not shown) [Compound 16, 5-(2,6-difluoro-4-(2-methyl-2H-indazol-4-yl)benzyl)-1-((tetrahydrofuran-2-yl)methyl)-4,5-dihydropyrrolo[3,4-c]pyrazol-6(1H)-one] | 93 | 920
10 | Cn1cc2c(-c3cc(F)c(CN4Cc5cn(CC6CCCO6)nc5C4=O)c(F)c3)cccc2n1 (stereo not shown) [Compound 17, 5-(2,6-difluoro-4-(2-methyl-2H-indazol-4-yl)benzyl)-2-((tetrahydrofuran-2-yl)methyl)-4,5-dihydropyrrolo[3,4-c]pyrazol-6(2H)-one] | 58 | 3410
11 | COCCn1ncc2c1C(=O)N(Cc1c(F)cc(-c3cccc4nn(C)cc34)cc1F)C2 [Compound 18, 5-(2,6-difluoro-4-(2-methyl-2H-indazol-4-yl)benzyl)-1-(2-methoxyethyl)-4,5-dihydropyrrolo[3,4-c]pyrazol-6(1H)-one] | 87 | 3100
12 | COCCn1cc2c(n1)C(=O)N(Cc1c(F)cc(-c3cccc4nn(C)cc34)cc1F)C2 [Compound 19, 5-(2,6-difluoro-4-(2-methyl-2H-indazol-4-yl)benzyl)-2-(2-methoxyethyl)-4,5-dihydropyrrolo[3,4-c]pyrazol-6(2H)-one] | 45 | –
13 | Cn1cc2c(-c3cc(F)c(CN4Cc5cnn(CCN6CCCC6)c5C4=O)c(F)c3)cccc2n1 [Compound 20, 5-(2,6-difluoro-4-(2-methyl-2H-indazol-4-yl)benzyl)-1-(2-(pyrrolidin-1-yl)ethyl)-4,5-dihydropyrrolo[3,4-c]pyrazol-6(1H)-one] | 91 | 730

Now from value to compound:

Row | Emax [%] | EC50 [nM] | Compound
14 | 84 | 1590 | Cn1cc2c(-c3cc(F)c(CN4Cc5sccc5C4=O)c(F)c3)cccc2n1 [Compound 1, 5-(2,6-difluoro-4-(2-methyl-2H-indazol-4-yl)benzyl)-5,6-dihydro-4H-thieno[2,3-c]pyrrol-4-one]
15 | 70 | 1260 | Cn1cc2c(-c3cc(F)c(CN4Cc5ccsc5C4=O)c(F)c3)cccc2n1 [Compound 2, 5-(2,6-difluoro-4-(2-methyl-2H-indazol-4-yl)benzyl)-4,5-dihydro-6H-thieno[2,3-c]pyrrol-6-one]
16 | 78 | – | Cn1cc2c(-c3cc(F)c(CN4Cc5nc[nH]c5C4=O)c(F)c3)cccc2n1 [Compound 3, 5-(2,6-difluoro-4-(2-methyl-2H-indazol-4-yl)benzyl)-5,6-dihydropyrrolo[3,4-d]imidazol-4(3H)-one]
17 | 73 | – | Cn1cc2c(-c3cc(F)c(CN4Cc5ncsc5C4=O)c(F)c3)cccc2n1 [Compound 5, 5-(2,6-difluoro-4-(2-methyl-2H-indazol-4-yl)benzyl)-4,5-dihydro-6H-pyrrolo[3,4-d]thiazol-6-one]
18 | 33 | 3850 | Cn1cc2cc(-c3cc(F)c(CN4Cc5ccn(CC6CCCO6)c5C4=O)c(F)c3)ccc2n1 (stereo not shown) [Compound 8, 5-(2,6-difluoro-4-(2-methyl-2H-indazol-5-yl)benzyl)-1-((tetrahydrofuran-2-yl)methyl)-4,5-dihydropyrrolo[3,4-b]pyrrol-6(1H)-one]
19 | 47 | – | Cn1cc(-c2ccc(CN3Cc4ncsc4C3=O)c(F)c2)cn1 [Compound 12, 5-(2-fluoro-4-(1-methyl-1H-pyrazol-4-yl)benzyl)-4,5-dihydro-6H-pyrrolo[3,4-d]thiazol-6-one]
20 | 51 | 1850 | Cn1cc2cc(-c3ccc(CN4Cc5ncsc5C4=O)c(F)c3)ccc2n1 [Compound 13, 5-(2-fluoro-4-(2-methyl-2H-indazol-5-yl)benzyl)-4,5-dihydro-6H-pyrrolo[3,4-d]thiazol-6-one]
21 | 40 | – | Cn1cc(-c2cc(F)c(CN3Cc4ncsc4C3=O)c(F)c2)cn1 [Compound 14, 5-(2,6-difluoro-4-(1-methyl-1H-pyrazol-4-yl)benzyl)-4,5-dihydro-6H-pyrrolo[3,4-d]thiazol-6-one]
22 | 55 | – | O=C1c2scnc2CN1Cc1c(F)cc(-c2ccc3nccn3c2)cc1F [Compound 15, 5-(2,6-difluoro-4-(imidazo[1,2-a]pyridin-6-yl)benzyl)-4,5-dihydro-6H-pyrrolo[3,4-d]thiazol-6-one]
